Tested on: patients with subarachnoid hemorrhage
Assay: Clinical study of postoperative EPA administration in patients with subarachnoid hemorrhage caused by ruptured aneurysm (GOS, survival, adverse events)
Format: in vivo, human
Description: Sixty four patients with subarachnoid hemorrhage caused by the ruptured aneurysm and subjected to surgical operations by the third day after onset (22 males and 42 females of the ages from 30's-80's) were divided into two groups (each having 32 individuals) designated as an EPA-administration group and an EPA-non-administration group. In addition, no difference was recognized in their background factors of both groups. Just after the operation, the EPA administration group received the administration of ethyl eicosapentaenoate (trade name: Epadel, manufactured by Mochida Pharmaceutical Co., Ltd.), 1,800 mg divided in three-doses a day for 14 days. Subsequently, the administration was continued during the hospital stay. At the stage of being impossible to dietary intake, tube-feedings were carried out. EPA suspended in hot water was administered through a stomach tube (Magen Sonde). At that time, for enhancing the absorption of EPA, 50 mg of Urso granule (manufactured by Mitsubishi Pharma Corporation) was administered through the stomach tube 15 minutes before EPA administration. At the stage of being possible to dietary intake, a commercial EPA preparation was administered orally. Furthermore, both groups were treated in combination with basic treatments on subarachnoid hemorrhage. However, some of the drugs were defined as prohibited substances. At the 30th day from the onset of subarachnoid hemorrhage, an evaluation was carried out by the Glasgow Outcome Scale (GOS).

[1] = 30th day from onset, 32 patients per group, 1,800 mg/day
[2] = 32 patients per group, 1,800 mg/day

CC/C=C\C/C=C\C/C=C\C/C=C\C/C=C\CCCC(=O)OCC [EPA, ethyl eicosapentaenoate]
GOS: D (Death), number of patients [1]: 1
GOS: MD (Moderate disability), number of patients [1]: 6
GOS: SD (Severe disability), number of patients [1]: 2
GOS: VS (Vegetative state), number of patients [1]: 2
GOS: GR (Good recovery), number of patients (30th day from onset, 32 patients per group, 1,800 mg/day in three doses, oral or stomach tube, Wilcoxon U test P=0.0128 vs non-administration group): 21
Death, number of patients [2]: 1
Survival, number of patients [2]: 31
Survival rate (32 patients per group, 1,800 mg/day, Fisher's exact test P=0.0265 vs non-administration group): 97%
Adverse event considered as a result of the EPA administration (subarachnoid hemorrhage patients, 1,800 mg/day for 14 days and continued during hospital stay): not found

From US20060135607A1, “Drug for improving prognosis for subarachnoid hemorrhage” (MOCHIDA PHARMACEUTICAL CO., LTD., priority 2003, published 2006)
